Legend:
[1] = for speed of sound: 100 kPa, Pulse-echo method; for speed of sound / viscosity / mass density: Liquid; for viscosity / mass density: 101 kPa; for viscosity: Concentric cylinders viscometry; for mass density: Vibrating tube method; for surface tension liquid-gas: 294.7 K, Drop volume
[2] = xn = mol fraction of the nth substance listed; settings: x2 = 0; for speed of sound: 100 kPa, Pulse-echo method; for speed of sound / viscosity / mass density: Liquid; for viscosity / mass density: 101 kPa; for viscosity: Concentric cylinders viscometry; for mass density: Vibrating tube method; for surface tension liquid-gas: 294.7 K, Drop volume

CC(CC(C)(C)C)CC(C)(C)CC(C)(C)C (configuration not stated) [2,2,4,4,6,8,8-heptamethylnonane]
[1]
Settings | mass density [kg/m3] | speed of sound [m/s] | viscosity [mPa·s]
293.15 K | 784.457 | 1285.7 | 3.7
303.15 K | 777.761 | 1248.5 | 2.92
313.15 K | 771.044 | 1211.8 | 2.37
323.15 K | 764.316 | 1176 | 1.95
333.15 K | 757.571 | 1140.8 | 1.63
343.15 K | 750.7 | – | 1.39
353.15 K | 743.8 | – | 1.19
363.15 K | 736.8 | – | 1.04
373.15 K | 729.9 | – | 0.914

Settings | surface tension liquid-gas [mN/m]
[1] | 24

CC(CC(C)(C)C)CC(C)(C)C [2,2,4,6,6-pentamethylheptane]
[1]
Settings | speed of sound [m/s]
293.15 K | 1203.6
303.15 K | 1164.8
313.15 K | 1126.7
323.15 K | 1089.3
333.15 K | 1052.5

Settings | surface tension liquid-gas [mN/m]
[1] | 21.8

CCCCCCCCCCCC [dodecane]
[1]
Settings | mass density [kg/m3] | speed of sound [m/s] | viscosity [mPa·s]
293.15 K | 748.893 | 1297.6 | 1.49
303.15 K | 741.635 | 1259.3 | 1.25
313.15 K | 734.349 | 1221.4 | 1.06
323.15 K | 727.038 | 1184.2 | 0.916
333.15 K | 719.691 | 1147.5 | 0.799
343.15 K | 712.2 | – | 0.704
353.15 K | 704.7 | – | 0.625
363.15 K | 697.1 | – | 0.56
373.15 K | 689.6 | – | 0.506

Settings | surface tension liquid-gas [mN/m]
[1] | 25.3

CCCCCCCCCCCC [dodecane] + CC(CC(C)(C)C)CC(C)(C)C
[2]
Settings | mass density [kg/m3] | speed of sound [m/s] | viscosity [mPa·s]
293.15 K | 748.893 | 1297.6 | 1.49
303.15 K | 741.635 | 1259.3 | 1.25
313.15 K | 734.349 | 1221.4 | 1.06
323.15 K | 727.038 | 1184.2 | 0.916
333.15 K | 719.691 | 1147.5 | 0.799
343.15 K | 712.2 | – | 0.704
353.15 K | 704.7 | – | 0.625
363.15 K | 697.1 | – | 0.56
373.15 K | 689.6 | – | 0.506

Settings | surface tension liquid-gas [mN/m]
[2] | 25.3

CCCCCCCCCCCC [dodecane] + CC(CC(C)(C)C)CC(C)(C)CC(C)(C)C
[2]
Settings | mass density [kg/m3] | speed of sound [m/s] | viscosity [mPa·s]
293.15 K | 748.893 | 1297.6 | 1.49
303.15 K | 741.635 | 1259.3 | 1.25
313.15 K | 734.349 | 1221.4 | 1.06
323.15 K | 727.038 | 1184.2 | 0.916
333.15 K | 719.691 | 1147.5 | 0.799
343.15 K | 712.2 | – | 0.704
353.15 K | 704.7 | – | 0.625
363.15 K | 697.1 | – | 0.56
373.15 K | 689.6 | – | 0.506

Settings | surface tension liquid-gas [mN/m]
[2] | 25.3
